Measurements: PMC2361662 (British Journal of Cancer, 2005)

How the values were obtained:
[1] = system: ERK; assay: ERK phosphorylation, immunoblot; type: cell-based
Procedure: (§1) For determination of phosphorylated proteins, 5 μg whole cell lysate from serum-starved cells was resolved by SDS–PAGE and electroblotted onto nitrocellulose membranes. After transfer and blocking in 5% nonfat milk, primary antibody staining was carried out by incubation overnight at 4°C, and secondary antibody staining was for 1 h at room temperature. The chemiluminescence detection method (ECL) was used for all Western blot experiments.
(§2) Extracellular regulated kinase-1 and -2 (ERK-2), phospholipase C γ (PLC-γ), protein kinase B (AKT) and the signal transducer and activator of transcription 3 (STAT3) are all essential downstream targets of EGFR and mediate many of its oncogenic effects.
(§3) Figure 3 (A) Phosphorylation of key signalling molecules upon EGF (10 nM for 10 min) stimulation in the four cell lines.

[2] = system: STAT3; assay: STAT3 phosphorylation, immunoblot; type: cell-based; settings: NR6M cells (EGFRvIII-expressing)
Procedure: as §1, §2, §3

[3] = system: LN229/EGFR cells; parameters: method as in Li et al (2003); settings: ref Li et al (2003); cited from earlier work
[4] = system: EGFRvIII-expressing cells; parameters: method as in Montgomery, 2002; settings: ref Montgomery, 2002; cited from earlier work

COc1cc2ncnc(Nc3ccc(F)c(Cl)c3)c2cc1OCCCN1CCOCC1 [gefitinib]
Effect on ERK phosphorylation ([1]; NR6M cells, 0.1 μM gefitinib, after 48 and 72 h): increased
Response of ERK phosphorylations to gefitinib ([1]; NR6W cells, up to the highest concentrations (2 μM)): unresponsive
Effect on background level of STAT3 phosphorylation [2]: no effect

COc1cc2ncnc(Nc3cccc(Br)c3)c2cc1OC [PD153035]
Concentration that stimulated proliferation [3]: 0.05 µM

COc1cc2ncnc(Nc3cccc(Cl)c3)c2cc1OC [AG1478]
Concentration that stimulated colony formation [4]: 0.1 µM
